The values that follow come from patent US10350210B2, “EGFR and ALK dual inhibitor” (PRECEDO PHARMACEUTICALS CO., LTD, priority 2015, dated 2019).

The test system of one assay is NCI-H2228. Briefly: Growth of cancer cells (Cell Titer-Glo viability), NCI-H2228. Format: cell-based. To be noted: Homo sapiens; NCI-H2228 (wild-type ALK), 72 hrs. From the text: (§1) By testing the effect of the novel kinase inhibitors on the proliferation of cancer cells, the selectivity of the compounds of the present disclosure in inhibiting the proliferation of cancer cells was further assessed. In this example, human non-small cell lung cancer cell NCI-H1975 (expressing EGFR L858R/T790M double mutant gene), human skin squamous carcinoma cell A431 (expressing wild-type EGFR gene), non-small cell lung cancer NCI-H3255 (expressing EGFR L858R mutant gene), non-small cell lung cancer cell NCI-H3122 (expressing ALK gene), human non-small cell lung cancer cell A549 (expressing wild-type EGFR gene), human non-small cell lung cancer cell NCI-H2122 (expressing wild-type EGFR gene), human non-small cell lung cancer cell NCI-H460 (expressing wild-type EGFR gene), human non-small cell lung cancer cell PC-9 (expressing EGFR delE746_A750 mutant gene), Chinese hamster ovary cell CHO (Cricetulus griseus, hamster, Chinese, ovary), Chinese hamster lung cell CHL, human non-small cell lung cancer cell HCC827 (expressing mutant EGFR del19 gene), human lung adenocarcinoma cell HCC4006 (expressing mutant EGFR del19 gene), human non-small cell lung cancer cell NCI-H2228 (expressing wild-type ALK gene), and mouse primary B cell BaF3 were used, and the above cells were all purchased from ATCC (US). In addition, mouse BaF3-TEL-ALK (stably expressing ALK kinase), mouse BaF3-ALK-F1174L (stably expressing mutant ALK F1174L kinase), mouse BaF3-NPM-ALK (stably expressing ALK kinase), mouse BaF3-TEL-EGFR (stably expressing EGFR kinase), mouse BaF3-TEL-EGFR-T790M (stably expressing EGFR T790M mutant kinase), mouse BaF3-FL-EGFR-Del19 (stably expressing EGFR delE746_A750 mutant kinase), mouse BaF3-TEL-EGFR-L858R (stably expressing EGFR L858R mutant kinase), mouse BaF3-FL-EGFR-T790M-L858R (stably expressing EGFR T790M/L858R mutant kinase), mouse BaF3-TEL-INSR (stably expressing INSR protein), mouse BaF3-TEL-IGF1R (stably expressing IGF1R Protein), mouse BaF3-EML4-ALK (stably expressing EML4-ALK Protein), mouse BaF3-TEL-JAK3 (stably expressing JAK3 kinase protein), mouse BaF3-TEL-CSF1R (stably expressing CSF1R protein), and mouse BaF3-TEL-ALK-F1196M (stably expressing ALK F1196M mutant kinase) were also used in this example. The above cell lines were all established by our laboratory via the following process: kinase proteins or protein domain sequences of human ALK, ALK F1174L, EGFR, EGFR T790M, EGFR delE746_A750, EGFR L858, EGFR T790M/L858R, INSR, IGF1R, EML4-ALK, JAK3, CSF1R, ALK F1196M were amplified respectively by PCR, and were respectively inserted into MSCV-Puro vector (Clontech) with N-terminal TEL fragments and/or NPM fragments and/or TPR fragments; the resultants were stably transfected into mouse BaF3 cells by the means of retrovirus, and the IL-3 growth factors were removed, and eventually the ALK, ALK F1174L, EGFR, EGFR T790M, EGFR delE746_A750, EGFR L858, EGFR T790M/L858R, INSR, IGF1R, EML4-ALK, JAK3, CSF1R, ALK F1196M-transferred protein dependent cell lines were obtained.
(§2) The number of viable cells was determined quantitatively by a microplate reader using Cell Titer-Glo® (Promega, US) chemiluminescence cell viability assay kit.
Background: ATP-based viability assays read luminescence as a measure of living cells.

In the next assay the test system is A549. Briefly: Growth of cancer cells (Cell Titer-Glo viability), A549. Format: cell-based. To be noted: Homo sapiens; A549 (wild-type EGFR), 72 hrs.
Text: as §1, §2

Another assay deals with PC-9. Briefly: Growth of cancer cells (Cell Titer-Glo viability), PC-9. Format: cell-based. To be noted: Homo sapiens; PC-9 (EGFR delE746_A750 mutant), 72 hrs.
Text: as §1, §2

The next assay deals with A431. Briefly: Growth of cancer cells (Cell Titer-Glo viability), A431. The assay is classed as cell-based. To be noted: Homo sapiens.
Text: as §1, §2

The next assay deals with CHL. As to the kind of experiment: Cell growth (Cell Titer-Glo viability), CHL. Format: cell-based, Chinese hamster. To be noted: Cricetulus griseus.
Text: as §1, §2

A further assay concerns CHO. Briefly: Cell growth (Cell Titer-Glo viability), CHO. Format: cell-based, Chinese hamster. To be noted: Cricetulus griseus.
Text: as §1, §2

A further assay concerns HCC827. As to the kind of experiment: Growth of cancer cells (Cell Titer-Glo viability), HCC827. Format: cell-based. To be noted: Homo sapiens; HCC827 (mutant EGFR del19), 72 hrs.
Text: as §1, §2

For a further assay, the system named is NCI-H2122. As to the kind of experiment: Growth of cancer cells (Cell Titer-Glo viability), NCI-H2122. Format: cell-based. To be noted: Homo sapiens; NCI-H2122 (wild-type EGFR), 72 hrs.
Text: as §1, §2

A further assay deals with BaF3-ALK-F1174L. As to the kind of experiment: Cell growth (Cell Titer-Glo viability), BaF3-ALK-F1174L. To be noted: Mus musculus; BaF3-ALK-F1174L (mutant ALK F1174L kinase), 72 hrs. Format: cell-based.
Text: as §1, §2

Another assay relates to BaF3-NPM-ALK. Briefly: Cell growth (Cell Titer-Glo viability), BaF3-NPM-ALK. Format: cell-based. To be noted: Mus musculus; BaF3-NPM-ALK (stably expressing ALK kinase), 72 hrs.
Text: as §1, §2

Another assay deals with NCI-H1975. As to the kind of experiment: Growth of cancer cells (Cell Titer-Glo viability), NCI-H1975. Format: cell-based. To be noted: Homo sapiens; NCI-H1975 (EGFR L858R/T790M double mutant), 72 hrs.
Text: as §1, §2

A further assay has as its system NCI-H3122. Briefly: Growth of cancer cells (Cell Titer-Glo viability), NCI-H3122. Format: cell-based. To be noted: Homo sapiens.
Text: as §1, §2

A further assay deals with BaF3. As to the kind of experiment: Cell growth (Cell Titer-Glo viability), BaF3. Format: cell-based. To be noted: BaF3 mouse primary B cell, 72 hrs.
Text: as §1, §2

For a further assay, the system named is BaF3-TEL-ALK. Briefly: Cell growth (Cell Titer-Glo viability), BaF3-TEL-ALK. Format: cell-based. To be noted: Mus musculus; BaF3-TEL-ALK (stably expressing ALK kinase), 72 hrs.
Text: as §1, §2

The mark [1] stands for this setting: A-431, A431 (wild-type EGFR), 72 hrs, read-out: GI50.
Setting [2] is: CHL Chinese hamster lung cell, 72 hrs, read-out: GI50.
Setting [3] is: CHO Chinese hamster ovary cell, 72 hrs, read-out: GI50.
Where [4] appears, read: NCI-H3122 (expressing ALK gene), 72 hrs, read-out: GI50.

The structures appear in SMILES notation. Where two headings read alike, the source gives them in different places.

In general, GI50 refers to the concentration at which growth is held to half of that of the control. On to `C=CC(=O)Nc1cc(Nc2ncc(Cl)c(Nc3ccccc3S(=O)(=O)C(C)C)n2)c(OC)cc1N1CCOCC1` [Compound 7, N-(5-(5-chloro-4-(2-(isopropylsulfonyl)phenylamino)pyrimidin-2-ylamino)-4-methoxy-2-morpholinylphenyl) acrylamide], for which the GI50 is 31 nM in the assay with NCI-H2228; 360 nM with A549; 90 nM in the assay with PC-9; 840 nM with A431 (setting [1]); 9.1 µM with CHL (setting [2]); 2900 nM in the assay on CHO (setting [3]). The GI50 with HCC827 worked out at 110 nM; in the assay with NCI-H2122, 1030 nM; in the assay on BaF3-ALK-F1174L, 630 nM; in the assay with BaF3-NPM-ALK, 1 nM; in the assay on NCI-H1975 it was 1200 nM.
For `C=CC(=O)Nc1cc(Nc2ncc(Cl)c(Nc3ccccc3S(=O)(=O)C(C)C)n2)c(OC)cc1N1CCN(CCOC)CC1` [Compound 13, N-(5-(5-chloro-4-(2-(isopropylsulfonyl)phenylamino)pyrimidin-2-ylamino)-4-methoxy-2-(4-(2-methoxyethyl)piperazin-1-yl)phenyl)acrylamide], the GI50 is 5.9 nM in the assay with NCI-H2228; 630 nM in the assay with A549; 12 nM with PC-9; 470 nM with A431 (setting [1]); less than 0.3 nM with NCI-H3122 (setting [4]); 3.7 µM in the assay with CHL (setting [2]). In addition, the 50% growth inhibitory concentration (GI50) in the assay on CHO (setting [3]) was 470 nM; with BaF3 it was 1400 nM; with HCC827, 15 nM; in the assay with BaF3-NPM-ALK it was less than 0.3 nM; in the assay on BaF3-TEL-ALK it was greater than 10000 nM; in the assay on NCI-H1975, 41 nM.
Turning to `C=CC(=O)Nc1cc(Nc2ncc(Cl)c(Nc3ccccc3S(=O)(=O)C(C)C)n2)c(OC)cc1N1CCN(CC2CC2)CC1` [Compound 14, N-(5-(5-chloro-4-(2-(isopropylsulfonyl)phenylamino)pyrimidin-2-ylamino)-2-(4-(cyclopropylmethyl)piperazin-1-yl)-4-methoxyphenyl)acrylamide], the GI50 in the assay on NCI-H2228 was 28 nM; in the assay with A549, 130 nM; in the assay with A431 (setting [1]) it was 350 nM; in the assay with NCI-H3122 (setting [4]), less than 0.3 nM; in the assay with CHL (setting [2]), 2 µM; in the assay with CHO (setting [3]) it was 300 nM. Moreover, the GI50 is 32 nM in the assay on HCC827, 4300 nM in the assay with NCI-H2122, less than 0.3 nM with BaF3-NPM-ALK and 100 nM with NCI-H1975.
Regarding `C=CC(=O)Nc1cc(Nc2ncc(Cl)c(Nc3ccccc3S(=O)(=O)C(C)C)n2)c(OC)cc1N1CCN(C2CCCCC2)CC1` [Compound 15, N-(5-(5-chloro-4-(2-(isopropylsulfonyl)phenylamino)pyrimidin-2-ylamino)-2-(4-cyclohexylpiperazin-1-yl)-4-methoxyphenyl)acrylamide], the GI50 is 70 nM in the assay on NCI-H2228; 390 nM in the assay on A549; 36 nM with PC-9; 370 nM in the assay with A431 (setting [1]); less than 0.3 nM with NCI-H3122 (setting [4]); 1.4 µM in the assay with CHL (setting [2]). Moreover, the GI50 is 170 nM in the assay with CHO (setting [3]); 300 nM in the assay on BaF3; 38 nM in the assay on HCC827; less than 0.3 nM in the assay with BaF3-NPM-ALK; 7.5 nM in the assay on BaF3-TEL-ALK; 77 nM in the assay on NCI-H1975.
With `C=CC(=O)Nc1cc(Nc2ncc(Cl)c(Nc3ccccc3S(=O)(=O)C(C)C)n2)c(OC)cc1N1CCN(Cc2ccccc2)CC1` [Compound 16, N-(2-(4-benzylpiperazin-1-yl)-5-(5-chloro-4-(2-(isopropylsulfonyl)phenylamino)pyrimidin-2-ylamino)-4-methoxyphenyl)acrylamide], the GI50 in the assay with NCI-H2228 was 66 nM; with A549 it was 4500 nM; with PC-9, 230 nM; in the assay with A431 (setting [1]), 4200 nM; in the assay with NCI-H3122 (setting [4]), 20 nM; in the assay with CHL (setting [2]), greater than 10 µM. In addition, the GI50 in the assay with CHO (setting [3]) turned out to be 1300 nM; in the assay with BaF3, 4100 nM; with NCI-H2122 it was 1100 nM; in the assay with BaF3-NPM-ALK it was 16 nM; in the assay with BaF3-TEL-ALK, 16 nM; in the assay on NCI-H1975 it was 310 nM.
On to `C=CC(=O)Nc1cc(Nc2ncc(Cl)c(Nc3ccccc3S(=O)(=O)C(C)C)n2)c(OC)cc1N1CCN[C@H](C)C1` [Compound 28, (R)—N-(5-(5-chloro-4-(2-(isopropylsulfonyl)phenylamino)pyrimidin-2-ylamino)-4-methoxy-2-(3-methylpiperazin-1-yl)phenyl)acrylamide], for which the GI50 was 31 nM with NCI-H2228; 480 nM in the assay with A549; 71 nM in the assay with PC-9; 71 nM in the assay with A431 (setting [1]); 3.3 µM in the assay with CHL (setting [2]); 1700 nM in the assay with CHO (setting [3]). The GI50 came out at 64 nM in the assay on HCC827; 621 nM with NCI-H2122; 1000 nM with BaF3-ALK-F1174L; 1 nM in the assay with BaF3-NPM-ALK; 140 nM in the assay on NCI-H1975.
As for `C=CC(=O)Nc1cc(Nc2ncc(Cl)c(Nc3ccccc3S(=O)(=O)C(C)C)n2)c(OC)cc1N1CCN[C@@H](C)C1` [Compound 29, (S)—N-(5-(5-chloro-4-(2-(isopropylsulfonyl)phenylamino)pyrimidin-2-ylamino)-4-methoxy-2-(3-methylpiperazin-1-yl)phenyl)acrylamide], the concentration for 50% growth inhibition (GI50) was 73 nM in the assay on NCI-H2228; 690 nM with A549; 62 nM with PC-9; 100 nM with A431 (setting [1]); 3.7 µM in the assay on CHL (setting [2]); 1500 nM in the assay with CHO (setting [3]). Moreover, the GI50 amounted to 59 nM in the assay with HCC827; 680 nM in the assay with NCI-H2122; 950 nM with BaF3-ALK-F1174L; 3 nM with BaF3-NPM-ALK; 120 nM in the assay with NCI-H1975.
Consider `C[C@@H](Oc1cc(-c2cnn(C3CCNCC3)c2)cnc1N)c1c(Cl)ccc(F)c1Cl` [Crizotinib, reference compound], for which the GI50 with A431 (A-431, 72 h) worked out at 1000 nM; in the assay with NCI-H3122 (NCI-H3122, 72 h), 73 nM; in the assay on CHL (CHL, 72 h) it was 1.9 µM; with CHO (CHO, 72 h), 6400 nM.
